# Reference: patent US20070155803A1, “Protease inhibitors” (ProZymex A/S, priority 2003, published 2007)
# Square brackets hold non-standard residues; d marks the D form. Peptide text beside a SMILES is read from it. Phe(3-F) = N[C@@H](Cc1cccc(F)c1)C(=O)O; hPhe = N[C@@H](CCc1ccccc1)C(=O)O; Abu = CC[C@H](N)C(=O)O; azaGly = NNC(=O)O
# Experiments:
# [1] = system: β-tryptase; assay: Tryptase assay; assay type: biochemical, human
# Description: Using this assay, the selectivity of a compound of the invention for hDPP-I over β-tryptase was determined, using a fluorogenic substrate.
# 0.1 M HEPES buffer (pH 7.5) with 0.5 M NaCl.
# Rh-Skin β-tryptase (Promega # G7061) was diluted to a final stock solution of 0.08 μg/μL in assay buffer.
# Rh-lung β-tryptase (Promega # G5631) was diluted to a final stock solution of 0.08 μg/μL in assay buffer.
# Z-ARG-AMC*HCl (BACHEM I1130; 10 mg) was dissolved in 1 mL DMSO, giving a 20 mM solution. Km was determined to be >400 μM.
# The assay was performed in 96-well plates. 85 μl assay buffer was added to the well followed by 5 μL enzyme stock. Then 5 μL substrate was added, and subsequently 5 μL 4% DMSO in assay buffer (control) or a compound of the invention (10 μM in the assay) The excitation wavelength was 380 nm, and the emission was measured at 460 nm for 10-20 minutes at […] Each measurement was mad in duplicate. In the software (SOFTmax Pro) used for data collection from the fluorometer (Molecular Devices: Gemini XS), it was ensured that the measured slopes were linear (R^2>0.99).
# Data were exported to GraphPad Prism and nonlinear regression was performed using the option Sigmoidal dose-response (variable slope).
# [2] = target: T1, Human liver cathepsin L (Homo sapiens, UniProt P07711); assay: Human liver cathepsin L assay; assay type: biochemical
# T1 construct: Human liver cathepsin L (Enzyme System Products, Catl-1); purchased Enzyme System Products Catl-1; host or cells: human liver
# T1 sequence (P07711 114-333): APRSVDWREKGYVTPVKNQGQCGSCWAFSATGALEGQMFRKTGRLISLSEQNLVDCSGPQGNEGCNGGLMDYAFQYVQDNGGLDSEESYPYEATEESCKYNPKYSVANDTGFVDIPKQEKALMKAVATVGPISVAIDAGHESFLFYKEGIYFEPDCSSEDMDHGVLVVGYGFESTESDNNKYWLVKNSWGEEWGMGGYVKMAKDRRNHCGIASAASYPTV
# Description: Human Liver Catheosin L Assay
# Using this assay, the selectivity of a compound of the invention for hDPP-I over human cathepsin L was determined, using a fluorogenic substrate.
# Human liver cathepsin L (Enzyme System Products, Catl-1; 5 μL of a 1.61 μU/IμL stock) was solubilized in 2500 μL enzyme buffer. Prior to running experiment, 1 μL 0.5 M DTT/100 μL enzyme Solution was added. inoubated for 5 minutes on ice then added to reaction mixture.
# Z-Phe-ARG-AFC*TFA (Enzyme System Products AF052; 15.6 mg) was dissolved in 1 mL DMSO, giving a 20 mM solution.
# The assay was performed in 96-well plates. 50 μL assay buffer was added to the well followed by 25 μL reference inhibitor (cystatin, stock 1 mg/mL, diluted with assay buffer to give 25 nM in assay) or a compound of the invention (diluted with assay buffer to give 10 μM in the assay). Then 25 μL (80 nU) enzyme was added, and 1 min. later (at 37° C.) 100 μL substrate (10 μM in the assay) was added. The excitation wavelength was 400 nm, and the emission was measured at 505 nm for 10-20 minutes at 37° C. Each measurement was made in duplicate. In the software (SOFTmax Pro) used for data collection from the fluorometer (Molecular Devices: Gemini XS), it was ensured that the measured slopes were linear (R^2>0.99). Data were exported to GraphPad Prism and nonlinear regression was performed using the option Sigmoidal dose-response (variable slope).
# [3] = target: T2, Human neutrophil elastase (Homo sapiens, UniProt P08246); assay: Human neutrophil elastase assay; assay type: biochemical
# T2 construct: purchased Calbiochem 324681
# T2 sequence (P08246 30-267): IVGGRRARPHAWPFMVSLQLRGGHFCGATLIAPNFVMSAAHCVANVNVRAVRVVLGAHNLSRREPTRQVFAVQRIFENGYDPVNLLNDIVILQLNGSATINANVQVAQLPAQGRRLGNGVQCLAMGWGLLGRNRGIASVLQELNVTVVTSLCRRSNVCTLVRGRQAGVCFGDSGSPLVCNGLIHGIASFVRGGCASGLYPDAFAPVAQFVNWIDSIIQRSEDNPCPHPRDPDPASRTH
# Description: Human Neutrophil Elastase Assay
# Using this assay, the selectivity of a compound of the invention for hDPP-I over human neutrophil elastase was determined, using a fluorogenic substrate.
# Buffer containing 100 mM Tris/HCl pH 7.5 (25° C.), and 500 mM NaCl.
# Human neutrophil elastase (Calbiochem Cat # 324681, 50 ng/µL stock) was reconstituted in 50 mM sodium acetate pH 5.5 and 200 mM NaCl, then stored at −20° C. Diluted to 1 ng/μL in buffer just prior to experiment.
# MeOSuc-Ala-Ala-Pro-Val-AMC (Calbiochem Cat # 324740) was dissolved in buffer to 4 mM (398 μL/mg) just prior to experiment. Km was determined to be 560 μM.
# The assay was performed in 96-well plates. 80 μL assay buffer was added to the well followed by 10 μL enzyme (1 ng/μL). Incubated for 10 min. at 37° C., then 10 μL substrate was added, and subsequently a compound of the invention (10 μM in the assay) The excitation wavelength was 380 nm, and the emission was measured at 460 nm for 10-20 minutes at 37° C. Each measurement was made in duplicate. In the software (SOFTmax Pro) used for data,collection from the fluorometer (Molecular Devices: Gemini XS), it was ensured that the measured slopes were linear (R^2>0.99). Data was exported to GraphPad Prism and nonlinear regression was performed using the option sigmoidal dose-response (variable slope).
compound,measurement,setting,value
"CC[C@H](N)C(=O)NNC(=O)N[C@@H](CCc1ccccc1)C(=O)N[C@@H](Cc1cccc(F)c1)C(N)=O [Example 11, 1-(2S-2-Aminobutanoyl)-4-[2S-N-[2S-3-(m-fluorophenyl)propan-2-yl-amide]-4-phenylbutan-2-yl-amide]semicarbazide] (H-[Abu][azaGly][hPhe][Phe(3-F)]-NH2)",Inhibition of tryptase (in words),[1],does not inhibit
same,IC50,"[1]; β-tryptase, 10 μM cutoff, read-out: Secondary enzymatic screening (10 μM cutoff or IC50) Tryptase",> 10 µM
same,Inhibition of Cathepsin L (in words),[2],does not inhibit
same,IC50,"[2]; human liver cathepsin L, 10 μM cutoff, read-out: Secondary enzymatic screening (10 μM cutoff or IC50) Cathepsin L",> 10 µM
same,Inhibition of neutrophil elastase (in words),[3],does not inhibit
same,IC50,"[3]; human neutrophil elastase, 10 μM cutoff, read-out: Secondary enzymatic screening (10 μM cutoff or IC50) Neutrophil elastase",> 10 µM
